Test results reported in patent US10611778B2, “Fused bicyclic inhibitors of menin-MLL interaction” (Janssen Pharmaceutica NV, priority 2016, dated 2020).

What was measured:
[1] = biological target: T1, Menin/MLL (terbium chelate-labeled menin, FITC-MBM1 peptide) (Homo sapiens, UniProt O00255, T541A); assay: Menin/MLL homogenous time-resolved fluorescence (HTRF) assay; format: binding; conditions: averaged values over all measurements; read-out: Menin HTRF assay (IC50)
T1 construct: Menin (a.a. 1-610-6×his tag) was labeled with terbium cryptate as follows
T1 sequence (O00255 with tags, fused parts or gaps T541A): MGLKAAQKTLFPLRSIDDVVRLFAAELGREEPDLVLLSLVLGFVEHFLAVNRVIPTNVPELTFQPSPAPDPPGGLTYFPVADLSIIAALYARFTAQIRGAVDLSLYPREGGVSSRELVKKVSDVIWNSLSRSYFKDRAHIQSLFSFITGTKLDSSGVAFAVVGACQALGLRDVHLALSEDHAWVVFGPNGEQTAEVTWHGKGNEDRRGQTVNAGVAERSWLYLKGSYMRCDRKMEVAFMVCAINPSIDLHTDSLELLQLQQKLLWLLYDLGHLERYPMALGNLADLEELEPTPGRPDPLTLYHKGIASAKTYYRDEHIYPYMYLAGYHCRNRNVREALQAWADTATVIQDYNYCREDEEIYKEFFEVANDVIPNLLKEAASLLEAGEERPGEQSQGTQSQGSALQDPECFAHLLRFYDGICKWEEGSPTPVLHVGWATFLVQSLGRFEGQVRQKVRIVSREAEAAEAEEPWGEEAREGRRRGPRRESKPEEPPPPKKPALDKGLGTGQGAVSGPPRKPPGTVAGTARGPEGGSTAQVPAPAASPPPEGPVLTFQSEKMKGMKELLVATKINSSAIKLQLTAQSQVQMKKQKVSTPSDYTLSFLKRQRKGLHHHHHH
Method in brief: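 Compound preincubated 5 min with terbium-cryptate-labeled menin (aa 1-610, His-tagged; 100 pM final), then 75 nM FITC-MBM1 peptide added, 15 min at ambient temperature; 0.5% DMSO, Tris pH 7.5 buffer. HTRF ratio 520/490 nm; % inhibition vs saturating competitor, IC50 from 11-point three-fold titration from 31 μM.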

MOLM14 = assay: Proliferation assay (spheroid assay) MOLM14; format: cell-based, human; conditions: Homo sapiens, MOLM-14, MOLM14; averaged values over all measurements; read-out: Spheroid assay MOLM14 (IC50)
Method in brief: (§1)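 Cells were grown as spheroids in ultra-low attachment round-bottom wells with compound (0.3% DMSO) for 8 d at 37 °C, imaged every 4 h, with confluence as spheroid size. AUC of confluence versus time (t=0 baseline) was expressed as % of DMSO control, and absolute IC50 came from a least-squares nonlinear fit.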

K562 = assay: Proliferation assay (spheroid assay) K562 control cell line; format: cell-based; conditions: Homo sapiens; K562 control cell line; averaged values over all measurements; read-out: Spheroid assay K562 (IC50)
Method: (§2) The anti-proliferative effect of menin/MLL protein/protein interaction inhibitor test compounds was assessed in human leukemia cell lines. The cell lines MV-4-11 and MOLM14 harbor MLL translocations and express the MLL fusion proteins MLL-AF4 and MLL-AF9, respectively, as well as the wildtype protein from the second allele. […] K562 and KG1 were used as a control cell lines containing two MLL wildtype alleles in order to exclude compounds that display general cytotoxic effects.
(§3) MV-4-11 and MOLM14 were cultured in RPMI-1640 (Sigma Aldrich) supplemented with 10% fetal bovine serum (HyClone), 2 mM L-glutamine (Sigma Aldrich) and 50 μg/ml gentamycin (Gibco). K562 were propagated in RPMI-1640 (Sigma Aldrich) supplemented with 20% fetal bovine serum (HyClone), 2 mM L-glutamine (Sigma Aldrich) and 50 μg/ml gentamycin (Gibco). KG1 were cultured in Iscove's MDM (Gibco) supplemented with 20% fetal bovine serum (HyClone), 2 mM L-glutamine (Sigma Aldrich) and 50 μg/ml gentamycin (Gibco).
(§4) In order to assess the anti-proliferative effects, 1,500 MV-4-11, 300 MOLM14, 750 K562 or 1,300 KG1 cells were seeded in 200 μl media per well in 96-well round bottom, ultra-low attachment plates (Costar, catalogue number 7007). Cell seeding numbers were chosen based on growth curves to ensure linear growth throughout the experiment. Test compounds were added at different concentrations and the DMSO content was normalized to 0.3%. Cells were incubated for 8 d at 37° C. and 5% CO2. Spheroid like growth was monitored in real-time by live-cell imaging (IncuCyteZOOM, Essenbio, 4× objective) acquiring one image every four hours for 8 d. Confluence (%) as a measure of spheroid size was determined using an integrated analysis tool.
(§5) In order to determine the cumulative effect of the test compounds over time, the area under the curve (AUC) in a plot of confluence against time was calculated. Confluence at the beginning of the experiment (t=0) was used as baseline for the AUC calculation.
(§6) Absolute IC50 values were calculated according to the following procedure: % Control=(AUC sample/AUC control)*100
(§7) AUC control=mean AUC of control values (cells without compound/DMSO as vehicle control)
(§8) A non-linear curve fit was applied using the least squares (ordinary) fit method to the plot of % control versus compound concentration. Based on this, the absolute IC50 value (half maximal inhibitory concentration of the test compound causing an anti-proliferative effect of 50% relative to the vehicle control) was calculated.

MV-4-11 = assay: Proliferation assay (spheroid assay) MV-4-11; format: cell-based, human; conditions: Homo sapiens, MV4-11, MV-4-11; averaged values over all measurements; read-out: Spheroid assay MV-4-11 (IC50)
Method in brief: as §1

KG1 = assay: Proliferation assay (spheroid assay) KG1 control cell line; format: cell-based; conditions: Homo sapiens, KG-1, averaged values over all measurements
Method: as §2, §3, §4, §5, §6, §7, §8

| IC50 [1] [nM] | melting point [°C] | IC50 (MOLM14) [nM] | IC50 (K562) [nM] | IC50 (MV-4-11) [nM] | Compound | IC50 (KG1) [nM] |
| --- | --- | --- | --- | --- | --- | --- |
| 18 | 160 | 1400 | > 15000 | 560 | FC(F)(F)Cc1cc2c(N3C[C@H]4CCN(CC5CCOCC5)C[C@H]4C3)ncnc2s1 (single isomer, unassigned) [Compound 70] | > 15000 |
| 410 | 112 | – | – | 5700 | O=C([C@@H]1CC2(CC2)CN1)N1CC[C@@H]2CN(c3ncnc4sc(CC(F)(F)F)cc34)C[C@@H]2C1 (single isomer, unassigned) [Compound 81] | – |
| 653 | 105 | – | – | 7900 | O=C([C@@H]1CC2(CC2)CN1)N1CC[C@H]2CN(c3ncnc4sc(CC(F)(F)F)cc34)C[C@H]2C1 (single isomer, unassigned) [Compound 82] | – |
